Assay results reported in PMC7515484, “Sphingosine kinase 2 inhibitor ABC294640 suppresses neuronal excitability and inhibits multiple endogenously and exogenously expressed voltage-gated ion channels in cultured cells” (Channels, 2020).

How the values were obtained:
KV4.2 = molecular target: T1, KV4.2 (Homo sapiens, UniProt Q9NZV8); test: whole-cell patch clamp, persistent current, transfected HEK293T cells; format: cell-based
T1 construct: gene KCND2
T1 sequence (Q9NZV8 1-630): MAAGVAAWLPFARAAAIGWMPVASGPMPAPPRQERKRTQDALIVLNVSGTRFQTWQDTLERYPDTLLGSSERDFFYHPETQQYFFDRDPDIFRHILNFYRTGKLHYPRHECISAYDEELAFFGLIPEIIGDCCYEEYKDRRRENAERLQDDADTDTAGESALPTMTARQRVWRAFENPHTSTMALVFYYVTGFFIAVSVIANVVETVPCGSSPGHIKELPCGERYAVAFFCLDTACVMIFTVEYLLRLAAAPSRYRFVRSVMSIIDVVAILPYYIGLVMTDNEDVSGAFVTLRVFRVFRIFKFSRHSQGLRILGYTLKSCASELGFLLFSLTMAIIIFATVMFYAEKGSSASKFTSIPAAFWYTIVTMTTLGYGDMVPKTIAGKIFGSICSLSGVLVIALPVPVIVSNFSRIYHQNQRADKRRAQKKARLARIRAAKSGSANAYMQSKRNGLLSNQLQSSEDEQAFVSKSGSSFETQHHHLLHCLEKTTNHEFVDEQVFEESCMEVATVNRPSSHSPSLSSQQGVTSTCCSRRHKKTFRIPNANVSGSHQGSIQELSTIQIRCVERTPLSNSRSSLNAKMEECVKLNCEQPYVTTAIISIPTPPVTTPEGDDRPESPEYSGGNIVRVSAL

KV1.4 = molecular target: T2, KV1.4 (Homo sapiens, UniProt P22459); test: as above; format: cell-based
T2 construct: gene KCNA4; human KCNA4 cDNA in pCMV3, expressed in HEK293T cells
T2 sequence (P22459 whole entry): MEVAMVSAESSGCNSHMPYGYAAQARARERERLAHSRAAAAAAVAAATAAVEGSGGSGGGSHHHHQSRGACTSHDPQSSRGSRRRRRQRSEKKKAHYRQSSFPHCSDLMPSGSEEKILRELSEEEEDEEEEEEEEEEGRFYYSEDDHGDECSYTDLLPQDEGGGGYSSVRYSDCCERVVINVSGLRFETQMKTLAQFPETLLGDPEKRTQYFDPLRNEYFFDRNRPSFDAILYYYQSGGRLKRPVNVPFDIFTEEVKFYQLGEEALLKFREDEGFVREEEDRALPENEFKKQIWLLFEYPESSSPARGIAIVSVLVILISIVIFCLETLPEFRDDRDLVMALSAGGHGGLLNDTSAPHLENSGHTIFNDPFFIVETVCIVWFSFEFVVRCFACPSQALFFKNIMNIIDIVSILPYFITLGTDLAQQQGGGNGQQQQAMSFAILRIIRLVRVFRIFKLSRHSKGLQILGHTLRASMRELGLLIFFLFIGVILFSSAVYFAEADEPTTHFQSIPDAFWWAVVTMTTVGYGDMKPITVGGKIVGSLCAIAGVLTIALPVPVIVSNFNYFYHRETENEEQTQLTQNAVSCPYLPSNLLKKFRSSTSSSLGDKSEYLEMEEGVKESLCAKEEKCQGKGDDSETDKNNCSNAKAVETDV

IC50 (KV4.2): 4.77 ± 0.68 µM
IC50 (KV1.4): 2.76 ± 0.28 µM
Compound: O=C(NCc1ccncc1)C12CC3CC(C1)CC(c1ccc(Cl)cc1)(C3)C2 [ABC294640]
